Converted amounts (≈) assume the structure as drawn. Read-outs that look alike come from different tables or passages of the source.
Legend:
[1] = system: MDCK cells; conditions: dog, 72 h
[2] = in vitro; conditions: dog
[3] = target: T1, recombinant human CLK1 (Homo sapiens, UniProt P49759); assay: CLK1 inhibitory assay (Kinase-Glo luminescent kinase assay, MBP substrate); type: biochemical
T1 construct: The primer of human full length CLK1 gene was as follows; made in house; host or cells: Sf9 insect cells (baculovirus, pFastBac1)
Procedure: The optimal conditions were dependent on the largest change in luminescence when comparing kinase reaction wells with control wells.
The kinase assay in this study utilized appropriate concentration of recombinant purified protein CLK1 in the presence of MBP as the substrate, MgCl2, MnCl2, ATP in kinase buffer (10 mM Tris, 1 mM EGTA, 100 μM sodium orthovanadate, 10 μM p-nitrophenyl phosphate (PNP), pH7.4) in a reaction volume of 20 μL. The reaction system were incubated at 25 °C for appropriate time. The Kinase-Glo® Luminescent Kinase Assay Platform was used to measure kinase activity by quantitating the amount of ATP, the signals of which were recorded using PerkinElmer’s EnSpire Multilabel Plate Reader. All the above components were added to the plate by automatic dispenser (EDR-384S, BioTec, Tokyo, Japan). A series of parameters containing the amount of kinase (1.16–298 ng/mL), MBP (3.125–150 μg/mL), ATP (0.1–100 μM), Mg^2+ (0.01–100 mM), Mn^2+ (0.5–20 mM), the percentage of DMSO (0.03%–10%), reaction time and temperature were optimized respectively in order to get best performance. Z′ factor values was calculated as described.
The inhibition percentage of the compounds against CLK1 were calculated according to the formula: (1) inhibition%=[(RLUsample−RLUpositive)/(RLUnegative−RLUpositive)]×100% where the RLUsample, RLUpositive, RLUnegative are the measured RLU values with treatment of test compounds, the wells free of test compounds, and that of without kinase, respectively.

[4] = system: influenza virus A/PR/8/34 (H1N1); assay: organism not typed; conditions: MDCK
[5] = system: influenza virus A/PR/8/34 (H1N1); assay: in vitro; conditions: for selectivity ratio at 24 h: MDCK, H1N1
[6] = system: MDCK cells; assay: Cytotoxicity assay in MDCK cells (MTT, 72 h); conditions: MDCK cells, 72 h, MTT; for CC0 (maximal non-cytotoxic concentration): more than 90% cells viable
[7] = Cytotoxicity assay in MDCK cells (MTT, 72 h); conditions: dog
[8] = system: CLK1; conditions: cited from earlier work
[9] = system: influenza virus A/PR/8/34 (H1N1)
[10] = Kinase-Glo assay, read-out: IC50 (converted)
[11] = 24 h, read-out: Simultaneous Treatment Assay EC50
[12] = read-out: Post-Treatment Assay EC50
[13] = read-out: Pre-Treatment Assay EC50
[14] = Pre-Treatment Assay SI (selective index, CC50/EC50), pre-treatment

T1 sequence (P49759 whole entry): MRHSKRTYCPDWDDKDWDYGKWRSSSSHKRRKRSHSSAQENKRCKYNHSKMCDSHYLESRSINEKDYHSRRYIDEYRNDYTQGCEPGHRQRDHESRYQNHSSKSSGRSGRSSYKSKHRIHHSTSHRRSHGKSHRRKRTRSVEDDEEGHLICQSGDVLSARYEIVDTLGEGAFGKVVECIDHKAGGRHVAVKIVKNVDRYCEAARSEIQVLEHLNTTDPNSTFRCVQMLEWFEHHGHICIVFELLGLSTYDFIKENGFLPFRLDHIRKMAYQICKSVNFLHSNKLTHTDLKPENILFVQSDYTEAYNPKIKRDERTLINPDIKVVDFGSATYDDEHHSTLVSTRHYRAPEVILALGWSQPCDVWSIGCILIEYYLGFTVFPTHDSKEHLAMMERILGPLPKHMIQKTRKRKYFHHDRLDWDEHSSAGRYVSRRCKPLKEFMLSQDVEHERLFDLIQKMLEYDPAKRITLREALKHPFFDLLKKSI

Molecule	EC50 [4, 11] [µg/mL]	EC50 [4, 12] [µg/mL]	EC50 [4, 13] [µg/mL]	IC50 ([3]; IC50, Kinase-Glo assay) [µM]	CC0 (maximal non-cytotoxic concentration) [6] [µg/mL]	CC50 at 72 h [7] [µg/mL]	other results
C/C=C/C(=O)c1c(O)c2c(c3c(-c4ccccc4)cc(=O)oc13)OC(C)(C)C=C2 [J10857]	16.3 ± 2.29 (≈ 41.9 µM)	14.7 ± 5.25 (≈ 37.8 µM)	18.4 ± 13 (≈ 47.4 µM)				CC0 (maximal non-cytotoxic concentration) [1]: 30 µg/mL; CC50 at 72 h [2]: 77.7 µg/mL (≈ 200 µM); IC50 [3, 10]: < 129 µM; selectivity ratio at 24 h ([5]; Post-Treatment Assay SI (selective index, CC50/EC50), post-treatment): 5.3; selectivity ratio at 24 h [5, 14]: 4.22; selectivity ratio at 24 h ([5]; Simultaneous Treatment Assay SI (selective index, CC50/EC50), simultaneous treatment): 4.78
O=c1c(-c2ccc(O)cc2)coc2cc(O)cc(O)c12 [Genistein]	> 30	> 30	> 30	< 185	30	75.6 (≈ 280 µM)	
NC(=O)c1ncn([C@@H]2O[C@H](CO)[C@@H](O)[C@H]2O)n1 [Ribavirin, reference compound]	10.3 ± 2.38 (≈ 42.3 µM)	13.8 ± 3.47 (≈ 56.4 µM)	4.36 ± 0.99 (≈ 17.9 µM)			> 200	
Cc1c([N+](=O)[O-])c(O)c([N+](=O)[O-])c2oc(=O)c(C(=O)Nc3cccc(C(=O)O)c3)cc12 [J11534]	> 30	> 30	> 30	< 116	30	175 (≈ 408 µM)	
c1csc(CNc2ncnc3ccc(-c4ccc5c(c4)OCO5)cc23)c1 [NCGC00010037]							IC50 [8]: 0.037 µM
Chebulanin [J12133]					30		IC50 ([3]; Kinase-Glo assay): lower than 50 μg/mL; CC50 (50% cytotoxic concentration) [6]: 90.27 µg/mL; Post-Treatment Assay EC50 ([9]; H1N1 (MOI 0.01) incubated with MDCK cells 2 h, then compound, 24 h, mean ± SD): 21.11 ± 11.15 µg/mL; Pre-Treatment Assay EC50 ([9]; H1N1 (MOI 0.01) pre-incubated with compound 2 h at 37 °C before addition to MDCK cells, 24 h, mean ± SD): 15.29 ± 10.35 µg/mL; Simultaneous Treatment Assay EC50 ([9]; compound added along with H1N1 (MOI 0.01) to MDCK cells, 24 h, mean ± SD): 9.84 ± 0.44 µg/mL; Post-Treatment Assay SI (selective index, CC50/EC50) ([9]; post-treatment, MDCK, H1N1): 4.28; Pre-Treatment Assay SI (selective index, CC50/EC50) ([9]; pre-treatment, MDCK, H1N1): 5.90; Simultaneous Treatment Assay SI (selective index, CC50/EC50) ([9]; simultaneous treatment, MDCK, H1N1): 9.17
O=c1c(O)c(-c2ccc(O)cc2)oc2cc(O)cc(O)c12 [J10610, Kaempferol]	12.3 ± 5.89 (≈ 43.1 µM)	23.3 ± 1.08 (≈ 81.4 µM)	5.16 ± 2.4 (≈ 18 µM)		30		IC50 ([3]; Figure 6, Kinase-Glo assay, read-out: IC50 (converted)): 6.01 µM; IC50 [3, 10]: < 175 µM; CC50 at 72 h ([7]; MDCK cells): 68.5 µg/mL (≈ 239 µM); selectivity ratio ([5]; Post-Treatment Assay SI (selective index, CC50/EC50)): 2.94; selectivity ratio ([5]; Pre-Treatment Assay SI (selective index, CC50/EC50)): 13.3; selectivity ratio ([5]; Simultaneous Treatment Assay SI (selective index, CC50/EC50)): 5.55
COc1cc(/C=C/c2cc(O)cc(O)c2)ccc1O [J14528, Isorhapontigenin]	> 30	> 30	5.98 ± 2.3 (≈ 23.2 µM)	< 194			CC0 (maximal non-cytotoxic concentration) [1]: 30 µg/mL; CC50 at 72 h [2]: 83.4 µg/mL (≈ 323 µM); selectivity ratio at 24 h [5, 14]: 13.9
O=C(O[C@@H]1Cc2c(O)cc(O)cc2O[C@@H]1c1cc(O)c(O)c(O)c1)c1cc(O)c(O)c(O)c1 [J14080, Epigallocatechin gallate]	14.9 ± 1.81 (≈ 32.4 µM)	> 30	10.2 ± 6.22 (≈ 22.2 µM)	< 109	30	71.1 (≈ 155 µM)	

Source: paper PMC6332427, “Drug Discovery of Host CLK1 Inhibitors for Influenza Treatment” (Molecules, 2015)
